Assay results as given in patent publication US5438056A (priority 1993, dated 1995).
Where two headings read alike, the source gives them in different places.

Columns and labels:
[1] = biological target: cholesterol ester hydrolase (Homo sapiens, UniProt P19835); assay: biochemical
cholesterol absorption = assay: animal or person; format: in vivo, normal rat
[2] = Rattus norvegicus, po, 6 h, read-out: % Decrease ^14 C Chol. Absorption at 6 hr in normal rat

cholesterol ester hydrolase, sequence (P19835 21-753): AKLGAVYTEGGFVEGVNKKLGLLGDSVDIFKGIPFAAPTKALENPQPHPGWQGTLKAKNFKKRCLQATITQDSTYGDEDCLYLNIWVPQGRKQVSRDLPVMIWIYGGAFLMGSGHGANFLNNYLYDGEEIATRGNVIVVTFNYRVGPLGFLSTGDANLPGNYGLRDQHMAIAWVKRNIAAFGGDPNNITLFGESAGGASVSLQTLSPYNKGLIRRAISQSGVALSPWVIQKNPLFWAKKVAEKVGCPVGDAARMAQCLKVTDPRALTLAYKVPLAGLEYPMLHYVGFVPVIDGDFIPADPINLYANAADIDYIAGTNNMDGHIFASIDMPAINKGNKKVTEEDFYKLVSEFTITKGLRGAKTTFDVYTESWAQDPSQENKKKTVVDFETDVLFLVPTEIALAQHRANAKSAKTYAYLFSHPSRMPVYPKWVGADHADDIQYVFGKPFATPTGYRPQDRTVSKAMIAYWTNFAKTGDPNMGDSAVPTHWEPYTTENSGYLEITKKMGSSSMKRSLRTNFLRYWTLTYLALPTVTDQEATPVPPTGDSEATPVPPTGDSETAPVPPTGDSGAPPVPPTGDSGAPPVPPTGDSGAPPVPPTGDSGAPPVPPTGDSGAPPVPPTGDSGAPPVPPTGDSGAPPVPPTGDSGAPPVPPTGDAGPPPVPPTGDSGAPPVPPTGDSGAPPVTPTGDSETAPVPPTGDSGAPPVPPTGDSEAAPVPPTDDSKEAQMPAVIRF

Row | SMILES | IC50 [1] [nM] | inhibition in vivo at 100 mg/kg (cholesterol absorption; [2]) [%] | other results
1 | CCCCCCCCCCCCNC(=O)ON=C(C1=CC(=O)C(C)(C)O1)c1ccc(Cl)cc1 [Example 13] | 10000 | 63 | 
2 | CCCCC/C=C/C/C=C/CCCCCCCCNC(=O)ON=C(C1=CC(=O)C(C)(C)O1)c1ccccc1 [Example 6, 2,2-Dimethyl-5-[[[[[(E,E)-9, 12-octadecadienylamino]carbonyl]oxy]imino]phenylmethyl]-3(2H)-furanone] | 2700 |  | inhibition in vivo at 25 mg/kg (cholesterol absorption; [2]): 50%
3 | CCCCCCCCNC(=O)ON=C(CCc1ccccc1)C1=CC(=O)C(C)(C)O1 [Example 11] | 1500 | 57 | 
4 | CCCCCCCCCCCCNC(=O)ON=C(C1=C(Br)C(=O)C(C)(C)O1)c1ccccc1 [Example 12, 2,2-Dimethyl-4-bromo-5-[[[[(dodecylamino)carbonyl]oxy]imino]phenylmethyl]3(2H)-furanone] | 2270 | 69 | 
5 | CCCCNC(=O)ON=C(c1ccc(N(C)C)cc1)c1ccccn1 [Example 20] |  |  | % Decrease ^14 C Chol. Absorption at 6 hr in normal rat (cholesterol absorption; rat, in vivo): 51%
6 | CCCCCCCCNC(=O)ON=C(C1=CC(=O)C(C)(C2CCCCC2)O1)c1ccccc1 (centres unmarked) [Example 7, 2-Cyclohexyl-2-methyl-5-[[[[(octylamino)carbonyl]oxy]imino]phenylmethyl]-3(2H)-furanone] | 1900 | 47 | 
7 | CCCCCCCC/C=C\CCCCCCCCNC(=O)ON=C(C1=CC(=O)C(C)(C)O1)c1ccccc1 [Example 4, 2,2-Dimethyl-5-[[[[[(Z)-9-octadecenylamino]carbonyl]oxy]imino]phenylmethyl]-3(2H)-furanone] |  | 74 | IC50 ([1]; read-out: IC50 against CEH): 5400 nM
8 | CCCCCCCCNC(=O)ON=C(C1=CC(=O)C(C)(C)O1)c1ccccc1 [Example 1, 2,2-Dimethyl-5-[[[[(octylamino)carbonyl]oxy]imino]phenylmethyl]-3(2H)-furanone] | 1900 | 39 | 
9 | CCCCCCCC/C=C/CCCCCCCCCNC(=O)ON=C(C1=CC(=O)C(C)(C)O1)c1ccccc1 [Example 5, 2,2-Dimethyl-5-[[[[[(E)-10-nonadecenylamino]carbonyl]oxy]imino]phenylmethyl]-3(2H)-furanone] | 25000 |  | inhibition in vivo at 25 mg/kg (cholesterol absorption; [2]): 39%
10 | CCCCCCCCNC(=O)ON=C(C1=CC(=O)C(C)(c2ccc(C(C)(C)C)cc2)O1)c1ccccc1 (centres unmarked) [Example 10, 2-[4-(1,1-Dimethylethyl)phenyl]-2-methyl-5-[[[[(octylamino)carbonyl]oxy]imino]phenylmethyl]-3(2H)-furanone] | 12700 | 46 | 
11 | CCCCCCCCCCCCNC(=O)ON=C(C1=CC(=O)C(C)(C)O1)c1ccccc1 [Example 2, 2,2-Dimethyl-5-[[[[(dodecylamino)carbonyl]oxy]imino]phenylmethyl]-3(2H)-furanone] | 570 | 76 | 
12 | CCCCCCCCNC(=O)ON=C(c1ccccn1)c1ccccn1 [Example 16, Di(2-pyridinyl)methanone O-[(octylamino)carbonyl]oxime] | 2770 |  | inhibition in vivo at 50 mg/kg (cholesterol absorption; [2]): 39%
13 | O=C(NC1CCCCC1)ON=C(c1ccccc1)c1ccccn1 [Example 14, Phenyl(2-pyridinyl)methanone O-[(cyclohexylamino)carbonyl]oxime] | 1400 | 44 | 
14 | CCCCCCCCNC(=O)ON=C(c1ccc(F)cc1)c1ccccn1 [Example 17, (4-Fluorophenyl)(2-pyridinyl)methanone O-[(octylamino)carbonyl]oxime] | 440 |  | inhibition in vivo at 50 mg/kg (cholesterol absorption; [2]): 57%
15 | CCCCCCCCNC(=O)ON=C(C1=CC(=O)C(C)(c2ccccc2)O1)c1ccccc1 (centres unmarked) [Example 8] | 130 | 46 | 
16 | CC1(C)CCC(NC(=O)ON=C(C2=CC(=O)C(C)(C)O2)c2ccccc2)CC1 [Example 3, 2,2-Dimethyl-5-[[[[[(4,4dimethylcyclohexyl)amino]carbonyl]oxy]imino]phenylmethyl]-3(2H)-furanone] | 100 | 44 | 
17 | CCCCCCCCNC(=O)ON=C(C1=CC(=O)C(C)(c2ccc(Cl)cc2)O1)c1ccccc1 (centres unmarked) [Example 9, 2-(4-Chlorophenyl)-2-methyl-5-[[[[(octylamino)carbonyl]oxy]imino]phenylmethyl]-3(2H)-furanone] | 2640 | 62 | 
18 | CCCCCCCCNC(=O)ON=C(c1ccc(OC)cc1)c1ccccn1 [Example 18, (4-Methoxyphenyl)(2-pyridinyl)methanone O-[(octylamino)carbonyl]oxime] | 2100 |  | inhibition in vivo at 65 mg/kg (cholesterol absorption; [2]): 45%
